From the supplement of paper PMC10307832

Legend:
Experiment in all cases: relative viability (nuclei count vs DMSO), 5 days (fraction); higher = more cells survive
GSK126 + Foretinib = compound: CC[C@H](C)N1C=C(C2=C(C=C(C=C21)C3=CN=C(C=C3)N4CCNCC4)C(=O)NCC5=C(C=C(NC5=O)C)C)C [GSK126] + COc1cc2c(Oc3ccc(NC(=O)C4(C(=O)Nc5ccc(F)cc5)CC4)cc3F)ccnc2cc1OCCCN1CCOCC1 [Foretinib] (partner 0.25 µM)
Procedure, shortened: (§1)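 After 5 days of treatment, lung cancer cells in 1536-well plates were fixed and stained in a single step (final 0.05% Triton X-100, 1% formaldehyde, 1 ug/ml Hoechst) and their nuclei counted on 4× images. Treatment had been applied by pin tool the day after seeding as one drug alone or as a fixed anchor-drug dose with five library-drug doses (not always all listed) in √10 steps. Relative viability is the nuclei count of treated wells divided by that of vehicle wells, and values are medians of duplicate plates.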

MLN4924 + OSI-027 = compound: NS(=O)(=O)OC[C@@H]1C[C@@H](n2ccc3c(N[C@H]4CCc5ccccc54)ncnc32)C[C@@H]1O [MLN4924] + COc1cccc2cc(-c3nc([C@H]4CC[C@H](C(=O)O)CC4)n4ncnc(N)c34)[nH]c12 [OSI-027] (partner 0.5 µM)
Procedure, shortened: as §1

Carboplatin + Pemetrexed = compound: C1CC(C1)(C(=O)O)C(=O)O.[NH2-].[NH2-].[Pt+2] [Carboplatin] + Nc1nc2[nH]cc(CCc3ccc(C(=O)N[C@@H](CCC(=O)O)C(=O)O)cc3)c2c(=O)[nH]1 [Pemetrexed] (partner 0.2 µM)
Procedure, shortened: as §1

Carboplatin + Luminespib = compound: C1CC(C1)(C(=O)O)C(=O)O.[NH2-].[NH2-].[Pt+2] [Carboplatin] + CCNC(=O)c1noc(-c2cc(C(C)C)c(O)cc2O)c1-c1ccc(CN2CCOCC2)cc1 [Luminespib] (partner 0.01 µM)
Procedure, shortened: as §1

Row | Cell Line | relative viability (GSK126 + Foretinib; first compound 0.08 µM) | relative viability (GSK126 + Foretinib; first compound 0.253 µM) | relative viability (GSK126 + Foretinib; first compound 0.8 µM) | relative viability (GSK126 + Foretinib; first compound 2.53 µM) | relative viability (GSK126 + Foretinib; first compound 8 µM) | relative viability (MLN4924 + OSI-027; first compound 0.04 µM) | relative viability (MLN4924 + OSI-027; first compound 0.1265 µM) | relative viability (MLN4924 + OSI-027; first compound 0.4 µM) | relative viability (MLN4924 + OSI-027; first compound 1.265 µM) | relative viability (MLN4924 + OSI-027; first compound 4 µM) | relative viability (Carboplatin + Pemetrexed; first compound 0.08 µM) | relative viability (Carboplatin + Pemetrexed; first compound 0.253 µM) | relative viability (Carboplatin + Pemetrexed; first compound 0.8 µM) | relative viability (Carboplatin + Pemetrexed; first compound 2.53 µM) | relative viability (Carboplatin + Pemetrexed; first compound 8 µM) | relative viability (Carboplatin + Luminespib; first compound 0.08 µM) | relative viability (Carboplatin + Luminespib; first compound 0.253 µM) | relative viability (Carboplatin + Luminespib; first compound 0.8 µM) | relative viability (Carboplatin + Luminespib; first compound 2.53 µM) | relative viability (Carboplatin + Luminespib; first compound 8 µM)
1 | NCI-H1793 | 0.799 | 0.519 | 0.581 | 0.776 | 0.885 | 0.293 | 0.26 | 0.303 | 0.243 | 0.261 | 1.1 | 0.908 | 0.918 | 0.866 | 0.93 | 0.153 | 0.172 | 0.187 | 0.185 | 0.17
2 | HCC-44 |  |  |  |  |  | 0.423 | 0.263 | 0.171 | 0.216 | 0.233 | 0.637 | 0.684 | 0.569 | 0.535 | 0.606 | 1.16 | 0.755 | 0.406 | 0.305 | 0.31
3 | NCI-H3122 | 0.983 | 1.03 | 0.985 | 1.01 | 0.994 | 0.917 | 0.603 | 0.219 | 0.122 | 0.121 | 0.198 | 0.202 | 0.189 | 0.191 | 0.183 | 0.102 | 0.0787 | 0.0812 | 0.09 | 0.0968
4 | COR-L23 | 1.06 | 0.931 | 0.921 | 0.932 | 1.01 | 0.718 | 0.602 | 0.555 | 0.199 | 0.119 | 0.188 | 0.202 | 0.192 | 0.193 | 0.198 | 0.617 | 0.678 | 0.568 | 0.254 | 0.163
